Experimental data taken from patent publication US7323542B2, “Bone targeting peptides” (University of Virginia Patent Foundation, priority 2002, dated 2008).

Columns and labels:
[1] = system: C4-2 cells binding to huBMEC; assay: Adhesion of 3H-thymidine labeled C4-2 cancer cells to huBMEC lawns in presence of peptide; format: cell-based, human; conditions: for PERCENT OF CONTROL AT 2H ADHESION: C4-2 cells on huBMEC; for inhibition of the ability of C42 cells to bind to huBMEC: in words, based on Table 1
Description: (§1) In accordance with one embodiment a method for inhibiting the growth of tumors is provided. The method comprises the steps of contacting tumor cells with a composition comprising an amino acid sequence selected from the group consisting of SEQ ID NOs: 1-24. As described in Example 3 the peptides of the present invention have been studied for their ability to prevent cancer cells from binding to human bone marrow endothelial cells (huBMEC). Either androgen dependent cancer cells (LNCaP cells) or androgen independent cancer cells (C42 cells) were labeled with 3H-thymidine and placed in contact with huBMEC in the presence of varying concentrations of bone targeting peptides R1 (SEQ ID NO: 25), R3 (SEQ ID NO: 27), L13 (SEQ ID NO: 22) and L19 (SEQ ID NO: 24). The cells were washed and the percent of acid precipitatable counts bound to huBMEC was determined (See Table 1). The control, where no bone targeting peptide was added generated approximately 18% acid ppt counts bound. […] Accordingly, these peptides in particular may be formulated a pharmaceutical compositions to prevent metastases to the bone. The composition may further include known anti-cancer agents such as chemotherapeutic agents. The compositions can be administered to a patient using any of the standard routes including oral and parenteral. In one preferred embodiment the compositions are administered locally by injection.
(§2) The initial interaction of metastatic cells is with the surface of the organ that will be colonized. Presumably, this interaction is through cell-matrix or cell-cell interaction. There are at least two potential targets for prostate cancer cells to interact, bone stromal cells and bone marrow endothelial cells. Briefly, lawns of target cells (D1 or huBMEC) will be established in 24-well dishes by seeding ˜5×10^4 cells per well 2-3 days before the adhesion experiment. At this time, subconfluent (˜50%) cultures of test cells (LNCaP, C4-2, DU145 and PC-3) will be placed into media with 1 uCi/ml tritiated thymidine. Two to three days later, labeled cells will be removed using a 5-10 mM EDTA/PBS solution and 1×10^5 test cells will be added to confluent lawns of target cells. Three groups are envisioned for each cell line 1) no peptide, 2) peptide at ED50 and 3) peptide at ED90.
(§3) There will also be an aliquot of labeled cells set aside to determine total acid precipitablc counts added. Adhesion assays will proceed for either 1 or 2 hours. Adherent cells will be separated from non-adherent cells by 2 rounds of 0.5 ml washes with PBS at 100 rpm for 2 minutes per wash. The remaining cells will then be fixed in 10% TCA for 10 min. with gentle shaking followed by hydrolysis of the residue in 0.5 ml of 2 N NaOH. The NaOH will be neutralized by 100 ul of concentrated HCl. The samples will then be counted in a liquid scintillation apparatus. The data will be analyzed by the Mellon Prostate Center Biostatistics Core to determine differences in growth and the ED50 and ED90 for each peptide if reasonable.
(§4) Using this adhesion assay the bone targeting peptides have been studied for their ability to prevent cancer cells from binding to huBMEC. Either androgen dependent cancer cells (LNCaP cells) or androgen independent cancer cells (C42 cells) were labeled with 3H-thymidine and placed in contact with huBMEC in the presence of varying concentrations of bone targeting peptides R1 (SEQ ID NO: 25), R3 (SEQ ID NO: 27), L13 (SEQ ID NO: 22) and L19 (SEQ ID NO: 24). The cells were washed and the percent of acid precipitatable counts bound to huBMEC was determined (See Table 1). The control, where no bone targeting peptide was added, is not shown, but generated approximately 18% acid ppt counts bound. […] Accordingly, these peptides in particular may be formulated a pharmaceutical compositions to prevent metastases to the bone.

[2] = system: LNCaP cells binding to huBMEC; assay: Adhesion of 3H-thymidine labeled LNCaP cancer cells to huBMEC lawns in presence of peptide; format: cell-based, human; conditions: for PERCENT OF CONTROL AT 2H ADHESION: LNCaP cells on huBMEC; for inhibition of the ability of LNCaP cells to bind to huBMEC: in words, based on Table 1
Description: as §1, §2, §3, §4

rib bone = assay: Localisation of peptides to rib tissue
Description: The peptides may have different effects depending on cell types from different tissues. The need to explore cells from other tissues, such as fibroblasts, adipocytes or muscle cells, may be determined by the location of the peptide ligands in area of tissue that are not directed within bone but there are adjacent to it. The case in point is that one peptide so far, L19, has been located to a tissue, that has not been identified yet, which, is adjacent to bone in rib. […] Analysis of cell types other than marrow mesenchymal or endothelial cells will help identify the specific cells, and their matrices that are targeted by individual peptides.

[3] = system: bone marrow derived mesenchymal cells and human bone marrow endothelial cells; assay: Binding of biotin-coupled peptides to cells in vitro, avidin-FITC detection; format: cell-based
Description: The cells currently investigated for binding to the peptides of the present invention were chosen because they are derived from bone marrow and are characteristic of mesenchymal cells that are pluripotential and behave as osteoprogenitors. The cells are capable of differentiating into bone cells in vitro and retain their osteogenic properties after transplantation in vivo into syngeneic mice. The human bone marrow endothelial cells are non-osteogenic and, therefore, are in contrast to the collagen type I, and mineral, producing properties of mesenchymal cells. The bone marrow endothelial cells serve the purpose of having a cell that is derived from the endothelial lining of the bone marrow cavity i.e. a cell from the endosteal surface. Although these are not the only cells that can be used, they will form the basis of the majority of the present studies with cells. […]
Peptides have been synthesized with a gly-gly-gly linker and coupled to biotin. […] Fluorescence was found at attachment sites of cellular processes to the substratum. […]
Control experiments with non-biotinylated peptides will ensure that binding avidin-FITC is specific to the properties of the peptide that target the cell surface or its extracellular matrix. No non-specific binding has been encountered so far with the three peptide sequences that have been explored and, there was no background fluorescence.

| Substance | PERCENT OF CONTROL AT 2H ADHESION ([1]; peptide 50 μM) | PERCENT OF CONTROL AT 2H ADHESION ([1]; peptide 100 μM) | inhibition of the ability of C42 cells to bind to huBMEC [1] | PERCENT OF CONTROL AT 2H ADHESION ([2]; peptide 50 μM) | PERCENT OF CONTROL AT 2H ADHESION ([2]; peptide 100 μM) | binding to bone (in rib) (rib bone) | tissue localisation of peptide (rib bone; preliminary) | binding to cells in culture [3] | inhibition of the ability of LNCaP cells to bind to huBMEC [2] |
| --- | --- | --- | --- | --- | --- | --- | --- | --- | --- |
| ASP-SER-SER-ASN-PRO-ILE-PHE- TRP-ARG-PRO-SER-SER (DSSNPIFWRPSS; listed as Homo sapiens) [L19] | 15.6 % of control | 18.4 % of control | substantially inhibits | 3.3 % of control | 4.1 % of control | not detected in the bone itself | localized to a soft tissue adjacent to rib |  |  |
| ASN- TYR-SER-HIS-LEU-ARG- VAL-LYS-LEU-PRO-THR-PRO (NYSHLRVKLPTP; listed as Homo sapiens) [R1] | 9.0 % of control | 9.6 % of control |  | 14.7 % of control | 9.9 % of control |  |  | binds to cells in culture |  |
| ALA- THR- TRP-SER-HIS-HIS-LEU-SER-SER-ALA-GLY-LEU (ATWSHHLSSAGL; listed as Homo sapiens) [R3] | 17.9 % of control | 7.9 % of control | substantially inhibits | 14.7 % of control | 3.8 % of control |  |  |  | substantially inhibits |
| SER-GLY-HIS-GLN-LEU-LEU-LEU-ASN-LYS-MET-PRO-ASN (SGHQLLLNKMPN; listed as Homo sapiens) [L13] | 5.8 % of control | 4.2 % of control | substantially inhibits | 3.8 % of control | 2.8 % of control | binds to rib bone |  |  | substantially inhibits |
